Data reported in patent publication USRE43802E1, “α- and β-amino acid hydroxyethylamino sulfonamides useful as retroviral protease inhibitors” (G.D. Searle LLC, priority 1992, dated 2012).
Like-named read-outs stand apart in the source and are kept apart here.

Molecular target: T1, HIV protease (Human immunodeficiency virus type 1 group M subtype B, UniProt P04585)
T1 construct: HIV protease is diluted in the assay buffer to a final enzyme concentration of 12.3 nanomolar, based on a molecular weight of 10,780
Test: HIV protease enzyme assay (fluorescence, substrate 2-Ile-Nle-Phe(p-NO2)-Gln-ArgNH2)
Type: biochemical
Conditions: HIV protease enzyme assay
Experimental: The enzyme method is described below. […] The positive control is MVT-101 (Miller, M. et al, Science, 246, 1149 (1989)] The assay conditions are as follows:
Assay buffer: 20 mM sodium phosphate, pH 6.4 20% glycerol 1 mM EDTA 1 mM DTT 0.1% CHAPS
The above described substrate is dissolved in DMSO, then diluted 10 fold in assay buffer. Final substrate concentration in the assay is 80 μM.
The final concentration of DMSO is 14% and the final concentration of glycerol is 18%. The test compound is dissolved in DMSO and diluted in DMSO to 10× the test concentration; 10 μl of the enzyme preparation is added, the materials mixed and then the mixture is incubated at ambient temperature for 15 minutes. The enzyme reaction is initiated by the addition of 40 μl of substrate. The increase in fluorescence is monitored at 4 time points (0, 8, 16 and 24 minutes) at ambient temperature. Each assay is carried out in duplicate wells.

Row | SMILES | IC50 (Table 21, read-out: IC50) | other results
1 | O=C(N[C@@H](Cc1ccccc1)[C@H](O)CN(C1CCCCC1)S(=O)(=O)c1ccccc1)OCc1ccccc1 [Entry 5] | 19 nM | IC50 (Table 18A, read-out: IC50): 19 nM
2 | CC(C)CCN(C[C@@H](O)[C@H](Cc1ccccc1)NC(=O)OCc1ccccc1)S(=O)(=O)c1ccc([N+](=O)[O-])cc1 [Entry 6] |  | IC50 (Table 18A, read-out: IC50): 10 nM
3 | CC(C)CCN(C[C@@H](O)[C@H](Cc1ccccc1)NC(=O)[C@@H](NC(=O)CN(C)C)C(C)(C)C)S(C)(=O)=O [Entry 6] |  | IC50 (IC50 (nM), Table 21): > 100 nM
4 | CCCN(C[C@@H](O)[C@H](Cc1ccccc1)NC(=O)[C@H](CC(N)=O)NC(=O)OCc1ccccc1)S(=O)(=O)c1ccccc1 [Entry 7] |  | IC50 (Table 18A, read-out: IC50): 3.6 nM
5 | CC(C)CCN(C[C@@H](O)[C@H](Cc1ccccc1)NC(=O)[C@H](Cc1c[nH]cn1)NC(=O)OCc1ccccc1)S(=O)(=O)c1ccccc1 [Entry 8] |  | IC50 (Table 18A, read-out: IC50): 4.2 nM
6 | CC(C)CCN(C[C@@H](O)[C@H](Cc1ccccc1)NC(=O)c1ccccc1)S(=O)(=O)c1ccccc1 [Entry 8] |  | IC50 (IC50 (nM), Table 21): 85 nM
7 | CC(C)CCN(C[C@@H](O)[C@H](Cc1ccccc1)NC(=O)[C@@H](NC(=O)CN(C)C)C(C)(C)C)S(=O)(=O)c1ccccc1 [Entry 9] |  | IC50 (Table 18A, read-out: IC50): 3.5 nM
8 | COCCCN(C[C@@H](O)[C@H](Cc1ccccc1)NC(=O)OCc1ccccc1)S(=O)(=O)c1ccccc1 [Entry 9] | 53 nM | 
9 | CC(C)CCN(C[C@@H](O)[C@H](Cc1ccccc1)NC(=O)OCc1ccccc1)S(=O)(=O)c1cccs1 [Entry 10] |  | IC50 (Table 18A, read-out: IC50): 100 nM
10 | CSCCCN(C[C@@H](O)[C@H](Cc1ccccc1)NC(=O)OCc1ccccc1)S(=O)(=O)c1ccccc1 [Entry 10] | 45 nM | 
11 | CC(C)CCN(C[C@@H](O)[C@H](Cc1ccccc1)NC(=O)[C@@H](NC(=O)CN(C)C)C(C)(C)C)S(=O)(=O)c1ccccc1 [Entry 11] |  | IC50 (IC50 (nM), Table 21): 3 nM
12 | CC(C)CCN(C[C@@H](O)[C@H](Cc1ccccc1)NC(=O)[C@@H](NC(=O)OCc1ccccc1)C(C)(C)C)S(C)(=O)=O [Entry 11] |  | IC50 (Table 18A, read-out: IC50): 81 nM
13 | CC(C)CCN(C[C@@H](O)[C@H](Cc1ccccc1)NC(=O)[C@H](Cc1cnc[nH]1)NC(=O)c1ccc2ccccc2n1)S(=O)(=O)c1ccccc1 [Entry 12] |  | IC50 (IC50 (nM), Table 21): 2 nM
14 | CCOc1ccc(S(=O)(=O)N(CC(C)C)C[C@@H](O)[C@H](Cc2ccccc2)NC(=O)OCc2ccccc2)cc1 [Entry 12] |  | IC50 (Table 18A, read-out: IC50): 20 nM
15 | CCC(C)[C@H](NC(=O)CN(C)C)C(=O)N[C@@H](Cc1ccccc1)[C@H](O)CN(CCC(C)C)S(=O)(=O)c1ccccc1 (stereo partly shown) [Entry 14] |  | IC50 (IC50 (nM), Table 21): 4 nM
16 | CCC(C)[C@H](NC(=O)CN(C)C)C(=O)N[C@@H](Cc1ccccc1)[C@H](O)CN(CC(C)C)S(=O)(=O)c1ccc(OC)cc1 (stereo partly shown) [Example 13] | 3 nM | 
17 | CC(C)CN(C[C@@H](O)[C@H](Cc1ccccc1)NC(=O)OCc1cccnc1)S(=O)(=O)c1ccc(Cl)cc1 [Example 18] | 4 nM | 
18 | CC(C)CN(C[C@@H](O)[C@H](Cc1ccccc1)NC(=O)OCc1cccnc1)S(=O)(=O)c1ccc([N+](=O)[O-])cc1 [Example 19] | 8 nM | 
19 | CC(C)CN(C[C@@H](O)[C@H](Cc1ccccc1)NC(=O)OCc1cccnc1)S(=O)(=O)c1ccc(O)cc1 [Example 20] | 4 nM | 
20 | COc1ccc(S(=O)(=O)N(CC(C)C)C[C@@H](O)[C@H](Cc2ccccc2)NC(=O)OCc2ccccn2)cc1 [Example 21] | 73 nM | 
21 | COc1ccc(S(=O)(=O)N(CC(C)C)C[C@@H](O)[C@H](Cc2ccccc2)NC(=O)OCc2cncnc2)cc1 [Example 23] | 2 nM | 
22 | COc1ccc(S(=O)(=O)N(CC(C)C)C[C@@H](O)[C@H](Cc2ccccc2)NC(=O)OCc2cc[n+]([O-])cc2)cc1 [Example 26] | 68 nM | 
23 | COc1ccc(S(=O)(=O)N(CC(C)C)C[C@@H](O)[C@H](Cc2ccccc2)NC(=O)C2CCCCC2)cc1 [Example 35] | 18 nM | 
24 | COc1ccc(S(=O)(=O)N(CC(C)C)C[C@@H](O)[C@H](Cc2ccccc2)NC(=O)c2cccc(N(C)C)c2C)cc1 [Example 36] | 310 nM | 
25 | Cc1ccccc1C(=O)N[C@@H](Cc1ccccc1)[C@H](O)CN(CC(C)C)S(=O)(=O)c1ccc(O)cc1 [Example 37] | 7 nM | 
26 | COc1ccc(S(=O)(=O)N(CC(C)C)C[C@@H](O)[C@H](Cc2ccccc2)NC(=O)OCc2ccc(N)nc2)cc1 [Example 38] | 4 nM | 
27 | COc1ccc(S(=O)(=O)N(CC(C)C)C[C@@H](O)[C@H](Cc2ccccc2)NC(=O)OCc2ccc(O)nc2)cc1 [Example 39] | 16 nM | 

Row | SMILES | IC50 (Table 21, read-out: IC50) | other results
28 | CC(C)CN(C[C@@H](O)[C@H](Cc1ccccc1)NC(=O)OCc1ccc(N)nc1)S(=O)(=O)c1ccc(O)cc1 [Example 40] | 3 nM | 
29 | CC(C)CN(C[C@@H](O)[C@H](Cc1ccccc1)NC(=O)OCc1cncnc1)S(=O)(=O)c1ccc(O)cc1 [Example 41] | 3 nM | 
30 | CC(C)CN(C[C@@H](O)[C@H](Cc1ccccc1)NC(=O)O[C@H]1CCSC1)S(=O)(=O)c1ccc(O)cc1 [Example 42] | 2 nM | 
31 | CC(C)CN(C[C@@H](O)[C@H](Cc1ccccc1)NC(=O)O[C@H]1CCS(=O)(=O)C1)S(=O)(=O)c1ccc(O)cc1 [Example 43] | 4 nM | 
32 | COc1ccc(S(=O)(=O)N(CC(C)C)C[C@@H](O)[C@H](Cc2ccccc2)NC(=O)O[C@H]2CCOC2)cc1 [Example 44] | 4 nM | 
33 | CC(C)CN(C[C@@H](O)[C@H](Cc1ccccc1)NC(=O)O[C@H]1CCOC1)S(=O)(=O)c1ccc(O)cc1 [Example 45] | 2 nM | 
34 | COc1ccc(S(=O)(=O)N(CC(C)C)C[C@@H](O)[C@H](Cc2ccccc2)NC(=O)O[C@H]2CCSC2)cc1 [Example 46] | 2 nM | 
35 | COc1ccc(S(=O)(=O)N(CC(C)C)C[C@@H](O)[C@H](Cc2ccccc2)NC(=O)O[C@H]2CCS(=O)(=O)C2)cc1 [Example 47] | 3 nM | 
36 | COc1ccc(S(=O)(=O)N(CC(C)C)C[C@@H](O)[C@H](Cc2ccccc2)NC(=O)c2cccc([N+](=O)[O-])c2C)cc1 [Example 48] | 17 nM | 
37 | COc1ccc(S(=O)(=O)N(CC(C)C)C[C@@H](O)[C@H](Cc2ccccc2)NC(=O)c2ccc([N+](=O)[O-])cc2C)cc1 [Example 50] | 14 nM | 
38 | COc1ccc(S(=O)(=O)N(CC(C)C)C[C@@H](O)[C@H](Cc2ccccc2)NC(=O)c2cc([N+](=O)[O-])ccc2C)cc1 [Example 53] | 21 nM | 
39 | COc1ccc(S(=O)(=O)N(CC(C)C)C[C@@H](O)[C@H](Cc2ccccc2)NC(=O)c2cc(N(C)C)ccc2C)cc1 [Example 55] | 37 nM | 
40 | COc1ccc(S(=O)(=O)N(CC(C)C)C[C@@H](O)[C@H](Cc2ccccc2)NC(=O)OCc2cncs2)cc1 [Example 56] | 4 nM | 
41 | CC(C)CN(C[C@@H](O)[C@H](Cc1ccccc1)NC(=O)OCc1cncs1)S(=O)(=O)c1ccc(O)cc1 [Example 57] | 4 nM | 
42 | COc1ccc(S(=O)(=O)N(CC(C)C)C[C@@H](O)[C@H](Cc2ccccc2)NC(=O)OCc2ccoc2)cc1 [Example 58] | 2 nM | 
43 | CC(C)CN(C[C@@H](O)[C@H](Cc1ccccc1)NC(=O)OCc1ccoc1)S(=O)(=O)c1ccc(N)cc1 [Example 60] | 5 nM | 
44 | CC(C)CN(C[C@@H](O)[C@H](Cc1ccccc1)NC(=O)OCc1cncs1)S(=O)(=O)c1ccc(N)cc1 [Example 61] | 16 nM | 
45 | Cc1ccccc1C(=O)N[C@@H](Cc1ccccc1)[C@H](O)CN(CC(C)C)S(=O)(=O)c1ccc(N)cc1 [Example 62] | 28 nM | 
46 | Cc1c(O)cccc1C(=O)N[C@@H](Cc1ccccc1)[C@H](O)CN(CC(C)C)S(=O)(=O)c1ccc(N)cc1 [Example 63] | 7 nM | 
47 | CC(C)CN(C[C@@H](O)[C@H](Cc1ccccc1)NC(=O)OCc1cncs1)S(=O)(=O)c1cccc(N)c1 [Example 64] | 7 nM | 
48 | Cc1c(O)cccc1C(=O)N[C@@H](Cc1ccccc1)[C@H](O)CN(CC(C)C)S(=O)(=O)c1cccc(N)c1 [Example 65] | 4 nM | 
49 | CC(C)CN(C[C@@H](O)[C@H](Cc1ccccc1)NC(=O)OCc1cccnc1)S(=O)(=O)c1ccc2c(c1)CCO2 [Example 66] | 4 nM | 
50 | CC(C)CN(C[C@@H](O)[C@H](Cc1ccccc1)NC(=O)OCc1cncs1)S(=O)(=O)c1ccc2c(c1)CCO2 [Example 67] | 5 nM | 
51 | Cc1c(N)cccc1C(=O)N[C@@H](Cc1ccccc1)[C@H](O)CN(CC(C)C)S(=O)(=O)c1ccc2c(c1)CCO2 [Example 68] | 7 nM | 
52 | CC(C)CN(C[C@@H](O)[C@H](Cc1ccccc1)NC(=O)OCc1cccnc1)S(=O)(=O)c1ccc2c(c1)OCO2 [Example 69] | 4 nM | 
53 | CC(C)CN(C[C@@H](O)[C@H](Cc1ccccc1)NC(=O)OCc1cncs1)S(=O)(=O)c1ccc2c(c1)OCO2 [Example 70] | 5 nM | 
54 | Cc1c(N)cccc1C(=O)N[C@@H](Cc1ccccc1)[C@H](O)CN(CC(C)C)S(=O)(=O)c1ccc2c(c1)OCO2 [Example 71] | 5 nM | 
